The source of these data is patent US11932658B2 (BRISTOL-MYERS SQUIBB COMPANY, priority 2016, dated 2024).

For this assay, the target named is T1, PAR4 (Homo sapiens, UniProt Q96RI0).
T1 construct: expressed in transfected cells; host or cells: HEK293 PAR4 Clone 1.2A (BMS Arctic ID 383940)
T1 sequence (Q96RI0 18-385): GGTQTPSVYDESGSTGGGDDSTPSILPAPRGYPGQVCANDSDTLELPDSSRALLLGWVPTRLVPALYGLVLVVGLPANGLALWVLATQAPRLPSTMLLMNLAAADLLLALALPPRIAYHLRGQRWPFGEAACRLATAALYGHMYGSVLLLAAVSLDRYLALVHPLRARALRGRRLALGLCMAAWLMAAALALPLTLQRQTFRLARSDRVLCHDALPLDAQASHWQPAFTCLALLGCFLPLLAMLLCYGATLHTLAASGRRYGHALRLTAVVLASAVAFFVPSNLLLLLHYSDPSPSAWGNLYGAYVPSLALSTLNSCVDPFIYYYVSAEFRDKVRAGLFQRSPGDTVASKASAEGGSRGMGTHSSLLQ
Put plainly: PAR4 FLIPR assay (antagonism of agonist peptide-induced calcium mobilization). It is filed as cell-based. Put shortly:
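Antagonism was taken as block of calcium mobilization evoked by the agonist peptide H-Ala-Phe(4-F)-Pro-Gly-Trp-Leu-Val-Lys-Asn-[…]-NH2, added after 30 min room-temperature compound preincubation in dye-loaded PAR4-transfected HEK293 cells (endogenous PAR1). Fluorescence was read on FDSS, with compound addition alone used as the agonist counter-screen; values come from 11-point concentration-response curves.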

SMILES strings stand for the structures.

As for `COc1cnc2c(-c3nc4c(F)cc5c(c4s3)OC[C@H](COC(=O)Nc3cccnc3)O5)cc(CO)cc2n1` [Example 83, (R)-(4-fluoro-2-(7-(hydroxymethyl)-2-methoxyquinoxalin-5-yl)-7,8-dihydro-[1,4]dioxino [2′,3′:3,4]benzo[1,2-d]thiazol-7-yl)methyl pyridin-3-ylcarbamate], the IC50 turned out to be 29 nM.
On to `COc1cnc2c(-c3nc4c(C)cc5c(c4s3)OC[C@H](COC(=O)Nc3ccnc(C)c3)O5)cc(C(F)F)cc2n1` [Example 84, (R)-(2-(7-(difluoromethyl)-2-methoxyquinoxalin-5-yl)-4-methyl-7,8-dihydro-[1,4]dioxino[2′,3′:3,4]benzo[1,2-d]thiazol-7-yl)methyl (2-methylpyridin-4-yl)carbamate], for which the IC50 amounted to 33 nM.
On to `COc1cnc2c(-c3nc4c(F)cc5c(c4s3)OC[C@H](COC(=O)Nc3ccnc(C)c3)O5)cc(CO)cc2n1` [Example 85, (R)-(4-fluoro-2-(7-(hydroxymethyl)-2-methoxyquinoxalin-5-yl)-7,8-dihydro-[1,4]dioxino [2′,3′:3,4]benzo[1,2-d]thiazol-7-yl)methyl (2-methylpyridin-4-yl)carbamate], for which the IC50 was determined as 15 nM.
Turning to `C=Cc1cc(-c2nc3c(C)cc4c(c3s2)OCC(COC(=O)Nc2ccc(OC)nc2)O4)c2ncc(OC)nc2c1` (stereo not drawn) [Example 86, (2-(2-methoxy-7-vinylquinoxalin-5-yl)-4-methyl-7,8-dihydro-[1,4]dioxino[2′,3′:3,4]benzo [1,2-d]thiazol-7-yl)methyl (6-methoxypyridin-3-yl)carbamate], the IC50 came to 6.3 nM.
Take `COc1ccc(NC(=O)OCC2COc3c(cc(C)c4nc(-c5cc(CO)cc6nc(OC)cnc56)sc34)O2)cn1` (stereo not drawn) [Example 87, (2-(7-(hydroxymethyl)-2-methoxyquinoxalin-5-yl)-4-methyl-7,8-dihydro-[1,4]dioxino[2′,3′:3,4]benzo[1,2-d]thiazol-7-yl)methyl (6-methoxypyridin-3-yl)carbamate]: the IC50 turned out to be 2 nM.
As to `COc1ccc(NC(=O)OCC2COc3c(cc(C)c4nc(-c5cc(C(C)O)cc6nc(OC)cnc56)sc34)O2)cn1` (stereo not drawn) [Example 88, (2-(7-(1-hydroxyethyl)-2-methoxyquinoxalin-5-yl)-4-methyl-7,8-dihydro-[1,4]dioxino[2′,3′:3,4]benzo[1,2-d]thiazol-7-yl)methyl (6-methoxypyridin-3-yl)carbamate], the IC50 was 4.4 nM.
Turning to `C=Cc1cc(-c2nc3c(C)cc4c(c3s2)OCC(COC(=O)Nc2cccnc2)O4)c2ncc(OC)nc2c1` (stereo not drawn) [Example 89, (2-(2-methoxy-7-vinylquinoxalin-5-yl)-4-methyl-7,8-dihydro-[1,4]dioxino[2′,3′:3,4]benzo [1,2-d]thiazol-7-yl)methyl pyridin-3-ylcarbamate], the IC50 is 20 nM.
With `COc1cnc2c(-c3nc4c(C)cc5c(c4s3)OCC(COC(=O)Nc3cccnc3)O5)cc(CO)cc2n1` (stereo not drawn) [Example 90, (2-(7-(hydroxymethyl)-2-methoxyquinoxalin-5-yl)-4-methyl-7,8-dihydro-[1,4]dioxino[2′,3′:3,4]benzo[1,2-d]thiazol-7-yl)methyl pyridin-3-ylcarbamate], the IC50 stood at 2.7 nM.
Turning to `COc1cnc2c(-c3nc4c(C)cc5c(c4s3)OC[C@H](COC(=O)Nc3ccc(C)nc3)O5)cc(C#N)cc2n1` [Example 91, (R)-(2-(7-cyano-2-methoxyquinoxalin-5-yl)-4-methyl-7,8-dihydro-[1,4]dioxino[2′,3′:3,4]benzo[1,2-d]thiazol-7-yl)methyl (6-methylpyridin-3-yl)carbamate], the IC50 is 1.1 nM.
Take `COc1cnc2c(-c3nc4c(C)cc5c(c4s3)OC[C@H](COC(=O)Nc3ccnc(C)c3)O5)cc(C#N)cc2n1` [Example 92, (R)-(2-(7-cyano-2-methoxyquinoxalin-5-yl)-4-methyl-7,8-dihydro-[1,4]dioxino[2′,3′:3,4]benzo[1,2-d]thiazol-7-yl)methyl (2-methylpyridin-4-yl)carbamate]: the IC50 is 1.4 nM.
Take `COc1cnc2c(-c3nc4c(C)cc5c(c4s3)OC[C@H](COC(=O)Nc3cccnc3)O5)cc(C#N)cc2n1` [Example 93, (R)-(2-(7-cyano-2-methoxyquinoxalin-5-yl)-4-methyl-7,8-dihydro-[1,4]dioxino[2′,3′:3,4]benzo[1,2-d]thiazol-7-yl)methyl pyridin-3-ylcarbamate]: the IC50 worked out at 20 nM.
As to `COc1ccc(NC(=O)OC[C@H]2COc3c(cc(C)c4nc(-c5cc(C#N)cc6nc(OC)cnc56)sc34)O2)cn1` [Example 94, (R)-(2-(7-cyano-2-methoxyquinoxalin-5-yl)-4-methyl-7,8-dihydro-[1,4]dioxino[2′,3′:3,4]benzo[1,2-d]thiazol-7-yl)methyl (6-methoxypyridin-3-yl)carbamate], the IC50 was determined as 29 nM.
Regarding `COc1cnc2c(-c3nc4c(C)cc5c(c4s3)OCC(COC(=O)Nc3cccnc3)O5)cc(Cl)cc2n1` (stereo not drawn) [Example 95, (2-(7-chloro-2-methoxyquinoxalin-5-yl)-4-methyl-7,8-dihydro-[1,4]dioxino[2′,3′:3,4]benzo[1,2-d]thiazol-7-yl)methyl pyridin-3-ylcarbamate], the IC50 worked out at 140 nM.
Take `COc1cnc2c(-c3nc4c(C)cc5c(c4s3)OCC(COC(=O)Nc3ccc(F)nc3)O5)cc(Cl)cc2n1` (stereo not drawn) [Example 96, (2-(7-chloro-2-methoxyquinoxalin-5-yl)-4-methyl-7,8-dihydro-[1,4]dioxino[2′,3′:3,4]benzo[1,2-d]thiazol-7-yl)methyl (6-fluoropyridin-3-yl)carbamate]: the IC50 was determined as 12 nM.
For `COc1cnc2c(-c3nc4c(C)cc5c(c4s3)OCC(COC(=O)Nc3ccc(C)nc3)O5)cc(Cl)cc2n1` (stereo not drawn) [Example 97, (2-(7-chloro-2-methoxyquinoxalin-5-yl)-4-methyl-7,8-dihydro-[1,4]dioxino[2′,3′:3,4]benzo[1,2-d]thiazol-7-yl)methyl (6-methylpyridin-3-yl)carbamate], the IC50 came to 64 nM.
`COc1ccc(NC(=O)OC[C@H]2COc3c(cc(C)c4nc(-c5cc(CO)cc6nc(OC)cnc56)sc34)O2)cn1` [Example 98, (R)-(2-(7-(hydroxymethyl)-2-methoxyquinoxalin-5-yl)-4-methyl-7,8-dihydro-[1,4]dioxino[2′,3′:3,4]benzo[1,2-d]thiazol-7-yl)methyl (6-methoxypyridin-3-yl)carbamate]: the IC50 was found to be 1.4 nM.
Regarding `COc1cnc2c(-c3nc4c(C)cc5c(c4s3)OC[C@H](COC(=O)Nc3ccnc(C)c3)O5)cc(CO)cc2n1` [Example 99, (R)-(2-(7-(hydroxymethyl)-2-methoxyquinoxalin-5-yl)-4-methyl-7,8-dihydro-[1,4]dioxino[2′,3′:3,4]benzo[1,2-d]thiazol-7-yl)methyl (2-methylpyridin-4-yl)carbamate], the IC50 stood at 2 nM.
Turning to `COc1cnc2c(-c3nc4c(C)cc5c(c4s3)OC[C@H](COC(=O)Nc3ccc(C)nc3)O5)cc(CO)cc2n1` [Example 100, (R)-(2-(7-(hydroxymethyl)-2-methoxyquinoxalin-5-yl)-4-methyl-7,8-dihydro-[1,4]dioxino[2′,3′:3,4]benzo[1,2-d]thiazol-7-yl)methyl (6-methylpyridin-3-yl)carbamate], the IC50 was found to be 1.8 nM.
On to `COc1cnc2c(-c3nc4c(C)cc5c(c4s3)OC[C@H](COC(=O)Nc3cccnc3)O5)cc(CO)cc2n1` [Example 101, (R)-(2-(7-(hydroxymethyl)-2-methoxyquinoxalin-5-yl)-4-methyl-7,8-dihydro-[1,4]dioxino[2′,3′:3,4]benzo[1,2-d]thiazol-7-yl)methyl pyridin-3-ylcarbamate], for which the IC50 turned out to be 2.8 nM.
In the case of `COc1cnc2c(-c3nc4ccc5c(c4s3)OC[C@H](COC(=O)Nc3ccc(C)nc3)O5)cc(C)cc2n1` [Example 102, (R)-(2-(2-methoxy-7-methylquinoxalin-5-yl)-7,8-dihydro-[1,4]dioxino[2′,3′:3,4]benzo[1,2-d]thiazol-7-yl)methyl (6-methylpyridin-3-yl)carbamate], the IC50 turned out to be 2.3 nM.
Under `COc1cnc2c(-c3nc4ccc5c(c4s3)OC[C@H](COC(=O)Nc3cnc(C)nc3)O5)cc(C)cc2n1` [Example 103, (R)-(2-(2-methoxy-7-methylquinoxalin-5-yl)-7,8-dihydro-[1,4]dioxino [2′,3′:3,4]benzo[1,2-d]thiazol-7-yl)methyl (2-methylpyrimidin-5-yl)carbamate] stands 2.8 nM.
Turning to `COc1ccc(NC(=O)OC[C@H]2COc3c(ccc4nc(-c5cc(C)cc6nc(OC)cnc56)sc34)O2)cn1` [Example 104, (R)-(2-(2-methoxy-7-methylquinoxalin-5-yl)-7,8-dihydro-[1,4]dioxino[2′,3′:3,4]benzo[1,2-d]thiazol-7-yl)methyl (6-methoxypyridin-3-yl)carbamate], the IC50 worked out at 1.9 nM.
Take `COc1cnc2c(-c3nc4ccc5c(c4s3)OC[C@H](COC(=O)Nc3ccc(C#N)nc3)O5)cc(C)cc2n1` [Example 105, (R)-(2-(2-methoxy-7-methylquinoxalin-5-yl)-7,8-dihydro-[1,4]dioxino[2′,3′:3,4]benzo[1,2-d]thiazol-7-yl)methyl (6-cyanopyridin-3-yl)carbamate]: the half-inhibitory concentration (IC50) turned out to be 1.6 nM.
As for `COc1cnc2c(-c3nc4ccc5c(c4s3)OC[C@H](COC(=O)Nc3ccc4[nH]c(=O)oc4c3)O5)cc(C)cc2n1` [Example 106, (R)-(2-(2-methoxy-7-methylquinoxalin-5-yl)-7,8-dihydro-[1,4]dioxino[2′,3′:3,4]benzo [1,2-d]thiazol-7-yl)methyl (2-oxo-2,3-dihydrobenzo[d]oxazol-6-yl)carbamate], the IC50 was 2 nM.

As a reminder, the IC50 is the point on the concentration scale where inhibition reaches its midpoint.
